Data from PubChem BioAssay (NCI).
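GI50 is the concentration that inhibits growth by half. TGI denotes the concentration required for complete inhibition of growth.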

Columns and labels:
Test in all cases: inhibition of tumour cell growth, NCI panel, 384-well format
SK-MEL-28 melanoma = test system: SK-MEL-28 melanoma
SNB-19 CNS = test system: SNB-19 CNS
BT-549 breast = test system: BT-549 breast
SW-620 colon = test system: SW-620 colon
ACHN renal = test system: ACHN renal
SF-539 CNS = test system: SF-539 CNS
SN12C renal = test system: SN12C renal
HOP-62 NSCLC = test system: HOP-62 NSCLC
MALME-3M melanoma = test system: MALME-3M melanoma
CAKI-1 renal = test system: CAKI-1 renal
HS 578T breast = test system: HS 578T breast
OVCAR-5 ovarian = test system: OVCAR-5 ovarian
NCI-H23 lung = test system: NCI-H23 lung
DU-145 prostate = test system: DU-145 prostate
CCRF-CEM leukemia = test system: CCRF-CEM leukemia
OVCAR-4 ovarian = test system: OVCAR-4 ovarian
HT29 colon = test system: HT29 colon
KM12 colon = test system: KM12 colon
786-0 renal = test system: 786-0 renal
SK-OV-3 ovarian = test system: SK-OV-3 ovarian
HCC-2998 colon = test system: HCC-2998 colon
SR leukemia = test system: SR leukemia
A549 NSCLC = test system: A549 NSCLC
NCI-H322M lung = test system: NCI-H322M lung
RPMI-8226 leukemia = test system: RPMI-8226 leukemia
A498 renal = test system: A498 renal
SK-MEL-5 melanoma = test system: SK-MEL-5 melanoma
HCT-15 colon = test system: HCT-15 colon
HL-60(TB) leukemia = test system: HL-60(TB) leukemia
MOLT-4 leukemia = test system: MOLT-4 leukemia
MDA-MB-231 breast = test system: MDA-MB-231 breast
RXF 393 renal = test system: RXF 393 renal
HOP-92 NSCLC = test system: HOP-92 NSCLC
U251 glioblastoma = test system: U251 glioblastoma
EKVX NSCLC = test system: EKVX NSCLC
OVCAR-8 ovarian = test system: OVCAR-8 ovarian
MDA-MB-468 breast = test system: MDA-MB-468 breast
T-47D breast = test system: T-47D breast
M14 melanoma = test system: M14 melanoma
LOX IMVI melanoma = test system: LOX IMVI melanoma
OVCAR-3 ovarian = test system: OVCAR-3 ovarian
NCI-H460 NSCLC = test system: NCI-H460 NSCLC
NCI-H522 lung = test system: NCI-H522 lung
IGROV1 ovarian = test system: IGROV1 ovarian
K-562 leukemia = test system: K-562 leukemia
NCI-H226 lung = test system: NCI-H226 lung
MDA-MB-435 melanoma = test system: MDA-MB-435 melanoma
HCT-116 colon = test system: HCT-116 colon
UACC-257 melanoma = test system: UACC-257 melanoma
PC-3 prostate = test system: PC-3 prostate
TK-10 renal = test system: TK-10 renal
SF-295 CNS = test system: SF-295 CNS
NCI/ADR-RES ovarian = test system: NCI/ADR-RES ovarian
UO-31 renal = test system: UO-31 renal
SNB-75 CNS = test system: SNB-75 CNS
SF-268 CNS = test system: SF-268 CNS

With `Nc1cc(C(F)(F)F)c(-c2cc(N3CCOCC3)nc(N3CCOCC3)n2)cn1` the GI50 (SK-MEL-28 melanoma) was 485 nM, the TGI (SK-MEL-28 melanoma) was 3340 nM and the GI50 (SNB-19 CNS) was 2030 nM. It also gave a TGI (SNB-19 CNS) of 7760 nM, a GI50 (BT-549 breast) of 691 nM and a TGI (BT-549 breast) of 4610 nM. The GI50 (SW-620 colon) was 358 nM, the TGI (SW-620 colon) was > 100000 nM and the GI50 (ACHN renal) was 246 nM. For the same compound, the TGI (ACHN renal) was 10000 nM, the GI50 (SF-539 CNS) was 1210 nM and the TGI (SF-539 CNS) was 2910 nM. It also gave a GI50 (SN12C renal) of 1220 nM, a TGI (SN12C renal) of 7120 nM and a GI50 (HOP-62 NSCLC) of 264 nM. It also gave a TGI (HOP-62 NSCLC) of 2730 nM, a GI50 (MALME-3M melanoma) of 272 nM and a TGI (MALME-3M melanoma) of 838 nM. For the same compound, the GI50 (CAKI-1 renal) was 230 nM, the TGI (CAKI-1 renal) was 804 nM and the GI50 (HS 578T breast) was 443 nM. The TGI (HS 578T breast) was 1750 nM, the GI50 (OVCAR-5 ovarian) was 687 nM and the TGI (OVCAR-5 ovarian) was > 100000 nM. For the same compound, the GI50 (NCI-H23 lung) was 310 nM, the TGI (NCI-H23 lung) was 2260 nM and the GI50 (DU-145 prostate) was 1990 nM. It also gave a TGI (DU-145 prostate) of 13900 nM, a GI50 (CCRF-CEM leukemia) of 589 nM and a TGI (CCRF-CEM leukemia) of 1880 nM. For the same compound, the GI50 (OVCAR-4 ovarian) was 1260 nM, the TGI (OVCAR-4 ovarian) was 6660 nM and the GI50 (HT29 colon) was 715 nM. The TGI (HT29 colon) was > 100000 nM, the GI50 (KM12 colon) was 894 nM and the TGI (KM12 colon) was 20200 nM. It also gave a GI50 ([…]-0 renal) of 1970 nM, a TGI (786-0 renal) of 7000 nM and a GI50 (SK-OV-3 ovarian) of 560 nM. The TGI (SK-OV-3 ovarian) was 2550 nM, the GI50 (HCC-2998 colon) was 1080 nM and the TGI (HCC-2998 colon) was 3370 nM. It also gave a GI50 (SR leukemia) of 45.9 nM, a TGI (SR leukemia) of 160 nM and a GI50 (A549 NSCLC) of 360 nM. For the same compound, the TGI (A549 NSCLC) was 12400 nM, the GI50 (NCI-H322M lung) was 1620 nM and the TGI (NCI-H322M lung) was 7010 nM. The GI50 (RPMI-8226 leukemia) was 185 nM, the TGI (RPMI-8226 leukemia) was 385 nM and the GI50 (A498 renal) was 387 nM. It also gave a TGI (A498 renal) of 1870 nM, a GI50 (SK-MEL-5 melanoma) of 235 nM and a TGI (SK-MEL-5 melanoma) of 762 nM. For the same compound, the GI50 (HCT-15 colon) was 394 nM, the TGI (HCT-15 colon) was 4110 nM and the GI50 (HL-60(TB) leukemia) was 280 nM. The TGI (HL-60(TB) leukemia) was 1300 nM, the GI50 (MOLT-4 leukemia) was 333 nM and the TGI (MOLT-4 leukemia) was 1330 nM. The GI50 (MDA-MB-231 breast) was 819 nM, the TGI (MDA-MB-231 breast) was 44900 nM and the GI50 (RXF 393 renal) was 285 nM. The TGI (RXF 393 renal) was 1300 nM, the GI50 (HOP-92 NSCLC) was 562 nM and the TGI (HOP-92 NSCLC) was 4000 nM. For the same compound, the GI50 (U251 glioblastoma) was 1770 nM, the TGI (U251 glioblastoma) was 4370 nM and the GI50 (EKVX NSCLC) was 793 nM. The TGI (EKVX NSCLC) was 6280 nM, the GI50 (OVCAR-8 ovarian) was 460 nM and the TGI (OVCAR-8 ovarian) was 14000 nM. For the same compound, the GI50 (MDA-MB-468 breast) was 230 nM, the TGI (MDA-MB-468 breast) was 618 nM and the GI50 (T-47D breast) was 231 nM. It also gave a TGI (T-47D breast) of 776 nM, a GI50 (M14 melanoma) of 416 nM and a TGI (M14 melanoma) of 8850 nM. The GI50 (LOX IMVI melanoma) was 1180 nM, the TGI (LOX IMVI melanoma) was 10700 nM and the GI50 (OVCAR-3 ovarian) was 546 nM. For the same compound, the TGI (OVCAR-3 ovarian) was 2460 nM, the GI50 (NCI-H460 NSCLC) was 419 nM and the TGI (NCI-H460 NSCLC) was 1670 nM. The GI50 (NCI-H522 lung) was 341 nM, the TGI (NCI-H522 lung) was 1300 nM and the GI50 (IGROV1 ovarian) was 209 nM. The TGI (IGROV1 ovarian) was 572 nM, the GI50 (K-562 leukemia) was 459 nM and the TGI (K-562 leukemia) was 1830 nM. The GI50 (NCI-H226 lung) was 574 nM, the TGI (NCI-H226 lung) was 4130 nM and the GI50 (MDA-MB-435 melanoma) was 223 nM. For the same compound, the TGI (MDA-MB-435 melanoma) was 449 nM, the GI50 (HCT-116 colon) was 852 nM and the TGI (HCT-116 colon) was 7530 nM. For the same compound, the GI50 (UACC-257 melanoma) was 930 nM, the TGI (UACC-257 melanoma) was 7270 nM and the GI50 (PC-3 prostate) was 462 nM. For the same compound, the TGI (PC-3 prostate) was 6930 nM, the GI50 (TK-10 renal) was 572 nM and the TGI (TK-10 renal) was 2730 nM. The GI50 (SF-295 CNS) was 361 nM, the TGI (SF-295 CNS) was 1540 nM and the GI50 (NCI/ADR-RES ovarian) was 265 nM. It also gave a TGI (NCI/ADR-RES ovarian) of 1670 nM, a GI50 (UO-31 renal) of 340 nM and a TGI (UO-31 renal) of 3070 nM. It also gave a GI50 (SNB-75 CNS) of 287 nM, a TGI (SNB-75 CNS) of 1190 nM and a GI50 (SF-268 CNS) of 384 nM. For the same compound, the TGI (SF-268 CNS) was 4570 nM.
